In US11964953B2, “Substituted aminothiazoles as DGKzeta inhibitors for immune activation” (Bayer Aktiengesellschaft, priority 2020, dated 2024):

These compounds were tested against human DGKζ (Homo sapiens (Human), UniProt Q13574) (assay: Human DGKζ kinase activity inhibition assay (ADP-Glo)). Conditions: in vitro human DGKζ kinase activity inhibition assay; read-out: IC50.
Sequence of human DGKζ (Q13574 other isoform, or with tags, fused parts or gaps): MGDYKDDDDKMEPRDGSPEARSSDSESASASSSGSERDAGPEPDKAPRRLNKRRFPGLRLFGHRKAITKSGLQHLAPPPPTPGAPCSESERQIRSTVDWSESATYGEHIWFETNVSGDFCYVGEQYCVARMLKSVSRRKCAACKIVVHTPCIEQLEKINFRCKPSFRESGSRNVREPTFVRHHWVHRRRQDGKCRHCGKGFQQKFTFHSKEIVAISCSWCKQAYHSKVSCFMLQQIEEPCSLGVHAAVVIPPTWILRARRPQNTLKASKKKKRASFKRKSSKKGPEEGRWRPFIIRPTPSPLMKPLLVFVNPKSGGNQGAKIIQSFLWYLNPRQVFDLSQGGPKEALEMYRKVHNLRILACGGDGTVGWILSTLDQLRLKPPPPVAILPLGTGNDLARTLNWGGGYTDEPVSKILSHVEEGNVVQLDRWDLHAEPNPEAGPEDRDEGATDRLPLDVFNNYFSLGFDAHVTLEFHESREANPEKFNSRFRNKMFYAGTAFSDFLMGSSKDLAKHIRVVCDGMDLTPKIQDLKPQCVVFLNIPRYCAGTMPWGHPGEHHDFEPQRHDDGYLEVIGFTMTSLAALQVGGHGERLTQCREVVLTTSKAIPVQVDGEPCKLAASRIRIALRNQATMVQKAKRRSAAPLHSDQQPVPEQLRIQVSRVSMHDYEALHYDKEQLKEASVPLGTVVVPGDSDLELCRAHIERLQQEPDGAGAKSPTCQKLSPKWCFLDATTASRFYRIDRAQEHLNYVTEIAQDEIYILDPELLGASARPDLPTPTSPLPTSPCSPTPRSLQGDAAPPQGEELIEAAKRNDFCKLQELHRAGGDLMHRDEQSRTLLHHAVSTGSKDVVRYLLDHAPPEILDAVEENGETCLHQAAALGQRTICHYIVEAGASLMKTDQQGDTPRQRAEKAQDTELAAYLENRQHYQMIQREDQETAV
Format: biochemical
Outline: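 Enzyme was C-terminally FLAG-tagged full-length recombinant human DGKζ from baculovirus-infected insect cells. Substrate preparation used octyl-β-D-glucopyranoside in 50 mM MOPS pH 7.4 with sonication; ADP generated was quantified by ADP-Glo luminescence as activity measure.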
Compound `CC(C(N)=O)N(c1ccc(F)c(F)c1)c1nc(N)c(C(=O)c2cccnc2)s1` (single isomer, unassigned) [Example 184.2, 2-(N-[4-amino-5-(pyridine-3-carbonyl)thiazol-2-yl]-3,4-difluoro-anilino)propanamide] has an IC50 greater than 20000 nM. For `CC(C(N)=O)N(c1ccc(Cl)c(F)c1)c1nc(N)c(C(=O)c2ccc(O)cc2)s1` (single isomer, unassigned; enantiomer 2) [Example 290, 2-(N-[4-amino-5-(4-hydroxybenzoyl)thiazol-2-yl]-4-chloro-3-fluoro-anilino)propanamide (enantiomer 2)], the IC50 was 936 nM. With `CC(C(N)=O)N(c1ccc(C(F)(F)F)cc1)c1nc(N)c(C(=O)c2ccc(OC(F)F)cc2)s1` (single isomer, unassigned) [Example 43.1, 2-[N-[4-amino-5-[4-(difluoromethoxy)benzoyl]thiazol-2-yl)-4-(trifluoromethyl)anilino]propanamide] the IC50 was 2730 nM. In the case of `CC(C(N)=O)N(c1ccc(F)cc1)c1nc(N)c(C(=O)c2ccc(C#N)cc2F)s1` (racemic) [Example 22, rac-2-(N-[4-amino-5-(4-cyano-2-fluoro-benzoyl)thiazol-2-yl]-4-fluoro-anilino)propanamide], the IC50 is reported as 130 nM. With `CC(C(N)=O)N(c1ccc(F)cc1)c1nc(N)c(C(=O)c2ccc(C#N)cc2)s1` (racemic) [Example 33, rac-2-(N-[4-amino-5-(4-cyanobenzoyl)thiazol-2-yl]-4-fluoro-anilino)propanamide] the IC50 was 42.8 nM. `CC(NC(=O)COc1ccc(C(=O)c2sc(N(c3ccc(F)cc3)C(C)C(N)=O)nc2N)cc1)c1ccccc1` (racemic) [Example 125, 2-(N-[4-amino-5-[4-[2-oxo-2-(1-phenylethylamino)ethoxy]benzoyl]thiazol-2-yl]-4-fluoro-anilino)propanamide] was tested, and the IC50 was 44 nM. In the case of `CC(C(N)=O)N(c1ccc(F)cc1)c1nc(N)c(C(=O)c2ccc(OC(F)(F)F)cc2)s1` (single isomer, unassigned) [Example 40.2, 2-(N-[4-amino-5-[4-(trifluoromethoxy)benzoyl]thiazol-2-yl]-4-fluoro-anilino)propanamide], the IC50 is reported as 7.08 nM. For `CC(C(N)=O)N(c1ccc(OC(F)F)c(Cl)c1)c1nc(N)c(C(=O)c2ccc(OC(F)F)cc2)s1` (racemic) [Example 201, rac-2-[N-[4-amino-5-[4-(difluoromethoxy)benzoyl]thiazol-2-yl]-3-chloro-4-(difluoromethoxy)anilino]propanamide], the IC50 was 25 nM. In the case of `CC(C(N)=O)N(c1ccc(F)cc1)c1nc(N)c(C(=O)c2ccc(OCC(=O)N(C)CCc3ccccc3)cc2)s1` (racemic) [Example 127, rac-2-(N-[4-amino-5-[4-[2-[methyl(2-phenylethyl)amino]-2-oxo-ethoxy]benzoyl]thiazol-2-yl]-4-fluoro-anilino)propanamide], the IC50 is reported as 73.1 nM. `CCOC(=O)COc1ccc(C(=O)c2sc(N(c3ccc(F)cc3)C(C)C(N)=O)nc2N)cc1` (single isomer, unassigned; enantiomer 2) [Example 81.2, ethyl 2-[4-[4-amino-2-(4-fluoro-N-[2-amino-1-methyl-2-oxo-ethyl]anilino)thiazole-5-carbonyl]phenoxy]acetate (enantiomer 2)] gave an IC50 of 10.1 nM. `CC(C(N)=O)N(c1ccc(F)cc1)c1nc(N)c(C(=O)c2ccc(N3CCC(C4COC4)CC3)nc2)s1` (racemic) [Example 277, rac-2-(N-[4-amino-5-[6-[4-(oxetan-3-yl)-1-piperidyl]pyridine-3-carbonyl]thiazol-2-yl]-4-fluoro-anilino)propanamide] showed an IC50 of 494 nM. Work on `CC(C(N)=O)N(c1ccc(Cl)cc1)c1nc(N)c(C(=O)c2ccc(F)cc2)s1` (single isomer, unassigned) [Example 37.1, 2-(N-[4-amino-5-(4-fluorobenzoyl)thiazol-2-yl]-4-chloro-anilino)propanamide] yielded an IC50 of 2000 nM. With `CC(C(N)=O)N(c1nc(N)c(C(=O)c2ccccc2)s1)c1ccc(F)cc1Cl` (racemic) [Example 11, rac-2-(N-(4-amino-5-benzoyl-thiazol-2-yl)-2-chloro-4-fluoro-anilino)propanamide] the IC50 was 406 nM. `CC(C(N)=O)N(c1ccc(Cl)cc1)c1nc(N)c(C(=O)c2ccc(Cl)cc2)s1` (single isomer, unassigned) [Example 41.1, 2-(N-[4-amino-5-(4-chlorobenzoyl)thiazol-2-yl]-4-chloro-anilino)propanamide] showed an IC50 of 2930 nM. With `CC(C(N)=O)N(c1ccc(F)cc1)c1nc(N)c(C(=O)c2ccc(OCC(=O)Nc3ncnc4[nH]ncc34)cc2)s1` (racemic) [Example 131, rac-2-(N-[4-amino-5-[4-[2-oxo-2-(1H-pyrazolo[3,4-d]pyrimidin-4-ylamino)ethoxy]benzoyl]thiazol-2-yl]-4-fluoro-anilino)propanamide] the IC50 was 180 nM. `CC(C(N)=O)N(c1ccc(OC(F)(F)F)c(F)c1)c1nc(N)c(C(=O)c2ccc(Cl)cc2)s1` (racemic) [Example 218, rac-2-[N-[4-amino-5-(4-chlorobenzoyl)thiazol-2-yl]-3-fluoro-4-(trifluoromethoxy)anilino]propanamide] showed an IC50 of 64 nM. With `CC(C(N)=O)N(c1ccc(F)cc1)c1nc(N)c(C(=O)c2ccc(C(=O)NC3CC3)cc2)s1` (racemic) [Example 266, rac-4-[4-amino-2-(N-(2-amino-1-methyl-2-oxo-ethyl)-4-fluoro-anilino)thiazole-5-carbonyl]-N-cyclopropyl-benzamide] the IC50 was 287 nM. Work on `CC(C(N)=O)N(c1ccc(F)cc1)c1nc(N)c(C(=O)c2ccc(OC(F)F)cc2)s1` (racemic) [Example 44, rac-2-(N-[4-amino-5-[4-(difluoromethoxy)benzoyl]thiazol-2-yl]-4-fluoro-anilino)propanamide] yielded an IC50 of 8.83 nM. In the case of `CCNC(=O)COc1ccc(C(=O)c2sc(N(c3ccc(F)cc3)C(C)C(N)=O)nc2N)cc1` (racemic) [Example 104, rac-2-(N-[4-amino-5-[4-[2-(ethylamino)-2-oxo-ethoxy]benzoyl]thiazol-2-yl]-4-fluoro-anilino)propanamide], the IC50 is reported as 234 nM. `Cc1nc(N(c2ccc(F)c(F)c2)C(C)C(N)=O)sc1C(=O)c1ccc(OC(F)F)cc1` (single isomer, unassigned) [Example 55.2, 2-(N-[5-[4-(difluoromethoxy)benzoyl]-4-methyl-thiazol-2-yl]-3,4-difluoro-anilino)propanamide] gave an IC50 of 835 nM. For `CC(C(N)=O)N(c1ccc(Cl)c(F)c1)c1nc(N)c(C(=O)c2ccc(OC(F)F)cc2)s1` (racemic) [Example 48, rac-2-(N-[4-amino-5-[4-(difluoromethoxy)benzoyl]thiazol-2-yl]-4-chloro-3-fluoro-anilino)propanamide], the IC50 was 3.72 nM. With `CC(C(N)=O)N(c1ccc(F)cc1)c1nc(N)c(C(=O)c2ccnc(C(F)F)c2)s1` (racemic) [Example 188, rac-2-(N-[4-amino-5-[2-(difluoromethyl)pyridine-4-carbonyl]thiazol-2-yl]-4-fluoro-anilino)propanamide] the IC50 was 1240 nM. `CC(C(N)=O)N(c1cccc(F)c1)c1nc(N)c(C(=O)c2ccccc2)s1` (single isomer, unassigned) [Example 74.1, 2-(N-(4-amino-5-benzoyl-thiazol-2-yl)-3-fluoro-anilino)propanamide] was tested, and the IC50 was 17100 nM. `CC(C(N)=O)N(c1ccc(F)cc1)c1nc(N)c(C(=O)c2ccc(N3CCC(C)(C#N)CC3)nc2)s1` (single isomer, unassigned; enantiomer 1) [Example 285.1, 2-(N-[4-amino-5-[6-(4-cyano-4-methyl-1-piperidyl)pyridine-3-carbonyl]thiazol-2-yl]-4-fluoro-anilino)propanamide (enantiomer 1)] gave an IC50 of 34 nM. For `Cc1nc(N(c2ccc(F)cc2)C(C)C(N)=O)sc1C(=O)c1ccccc1` (racemic) [Example 156, rac-2-(N-(5-benzoyl-4-methyl-thiazol-2-yl)-4-fluoro-anilino)propanamide], the IC50 was 231 nM. For `CC(C(N)=O)N(c1ccc(F)cc1)c1nc(N)c(C(=O)c2ccc(OCC(=O)NC3CCCCC3)cc2)s1` (racemic) [Example 106, rac-2-(N-(4-amino-5-[4-[2-(cyclohexylamino)-2-oxo-ethoxy]benzoyl]thiazol-2-yl]-4-fluoro-anilino)propanamide], the IC50 was 33.3 nM. For `CC(C(N)=O)N(c1ccc(C(F)(F)F)nc1)c1nc(N)c(C(=O)c2ccccc2)s1` (racemic) [Example 230, rac-2-[(4-amino-5-benzoyl-thiazol-2-yl)-[6-(trifluoromethyl)-3-pyridyl]amino]propanamide], the IC50 was 199 nM. Work on `CC(C(N)=O)N(c1ccc(OC(F)(F)F)c(Cl)c1)c1nc(N)c(C(=O)c2ccncc2)s1` (racemic) [Example 225, rac-2-[N-[4-amino-5-(pyridine-4-carbonyl)thiazol-2-yl]-3-chloro-4-(trifluoromethoxy)anilino]propanamide] yielded an IC50 of 252 nM. For `COc1ccc(C(=O)c2sc(N(c3ccc(Cl)cc3)C(C)C(N)=O)nc2N)cc1` (single isomer, unassigned) [Example 58.2, 2-(N-[4-amino-5-(4-methoxybenzoyl)thiazol-2-yl]-4-chloro-anilino)propanamide], the IC50 was 1050 nM. `CC(C(N)=O)N(c1ccc(Cl)c(F)c1)c1nc(N)c(C(=O)c2ccncc2)s1` (racemic) [Example 56, rac-2-(N-[4-amino-5-(pyridine-4-carbonyl)thiazol-2-yl]-4-chloro-3-fluoro-anilino)propanamide] showed an IC50 of 120 nM. Compound `CC(C(N)=O)N(c1nc(N)c(C(=O)c2ccccc2)s1)c1c(F)cc(F)cc1F` (racemic) [Example 4, rac-2-(N-(4-amino-5-benzoyl-thiazol-2-yl)-2,4,6-trifluoro-anilino)propanamide] has an IC50 of 833 nM. `Cc1cccc(N(c2nc(N)c(C(=O)c3ccccc3)s2)C(C)C(N)=O)c1` (racemic) [Example 76, rac-2-(N-(4-amino-5-benzoyl-thiazol-2-yl)-3-methyl-anilino)propanamide] was tested, and the IC50 was 252 nM. For `CC(Oc1ccc(C(=O)c2sc(N(c3ccc(F)cc3)C(C)C(N)=O)nc2N)cc1)C(N)=O` (racemic) [Example 69, 2-(N-[4-amino-5-[4-(2-amino-1-methyl-2-oxo-ethoxy)benzoyl]thiazol-2-yl]-4-fluoro-anilino)propanamide], the IC50 was 64.1 nM.
